{
  "source": "patent US20170202838A1",
  "about": "“IMMUNOMODULATOR” (TAIHO PHARMACEUTICAL CO., LTD., priority 2015, published 2017)",
  "type_in_all_cases": "cell-based",
  "key": {"[1]": {"tested_on": "human peripheral blood mononuclear cells", "assay": "Induction of cytokine production in human peripheral blood mononuclear cells, Bio-Plex Pro cytokine assay (Example 7)", "settings": "2 days culture, no stimulant (FIG. 9)", "protocol": "Human peripheral blood mononuclear cells were introduced into a human complete medium (i.e., RPMI-1640 supplemented with 10% heat-inactivated FBS, 100 U/ml penicillin, and 100 μg/ml streptomycin) to prepare a cell suspension (1×10^5 cells/ml). Compound (I), the EGFR tyrosine kinase inhibitor (i.e., AZD9291 or Erlotinib), or a cytokine-inducing positive control (i.e., Imiquimod) was added to the cell suspension. A control group to which the EGFR tyrosine kinase inhibitor and others were not added was also prepared (i.e., the non-treatment group). The culture solution was cultured in an incubator at 37° C. in the presence of 5% CO2 for 2 days. The culture supernatant was recovered, and various types of cytokines were inspected with the use of the Bio-Plex Pro human cytokine assay kit."}, "mouse spleen cells": {"tested_on": "mouse spleen cells", "assay": "Excitation of T cell growth, CFSE flow cytometry of CD4- and CD8-positive spleen cells (Example 4)", "settings": "0.1 μM, 3 days culture of stimulated spleen cells", "protocol": "The mouse spleen was extracted, grinded with glass slides with frosted areas, and then subjected to hemolysis, so as to obtain spleen cells. The spleen cells were suspended in 5 ml of a staining buffer (0.5% BSA, 2 mM EDTA, PBS(-)), and the cells were stained with 5 μM CFSE (5-carboxyfluorescein succinimidyl ester). Thereafter, the stained cells were washed with an ice-cooled complete medium (RPMI-1640). The CFSE-stained spleen cells were introduced into a complete medium (i.e., RPMI-1640 supplemented with 10% heat-inactivated FBS, 100 U/ml penicillin, 100 μg/ml streptomycin, and 55 μM 2-mercaptoethanol) to prepare a cell suspension (1×10^6 cells/ml), the anti-CD3 antibody and the anti-CD28 antibody were added at 1 μg/ml and 1 μg/ml, respectively, and Compound (I) adjusted to various concentrations or the EGFR tyrosine kinase inhibitor (i.e., AZD09291, Erlotinib, Co1686 (Rociletinib), Ibrutinib, Sunitinib, or Dasatinib) was added at 0.1 μM. […] These culture solutions were seeded in a 96-well plate at 200 μl/well and then cultured in an incubator at 37° C. in the presence of 5% CO2 for 3 days. The cells were recovered and stained with the anti-CD4 antibody and the anti-CD8 antibody. The amounts of CFSE in CD4- and CD8-positive cells were analyzed via flow cytometry.\nOnce CFSE is incorporated into a cell, the amount thereof is kept constant in the cell. Since the amount of CFSE per cell decreases by half upon cell division, according to flow cytometric analysis, the intensity of CFSE staining is attenuated and is shifted toward left (i.e., lower level) in the chart, as cell division proceeds. […] In the case of the samples to which other types of EGFR tyrosine kinase inhibitors had been added, in contrast, no such activity for enhancing the cell growth was observed."}, "[2]": {"tested_on": "human peripheral blood mononuclear cells", "assay": "Induction of IL-2 production of PHA-M-stimulated human peripheral blood mononuclear cells (Example 2)", "settings": "PHA-M 5 μg/ml, 3 days, ELISA (FIG. 3)", "protocol": "Human peripheral blood mononuclear cells were introduced into a human complete medium (i.e., RPMI-1640 supplemented with 10% heat-inactivated FBS, 100 U/ml penicillin, and 100 μg/ml streptomycin) to prepare a cell suspension (1×10^6 cells/ml). Phytohemagglutinin M (PHA-M) was added thereto to the final concentration of 5 μg/ml, and Compound (I) or an EGFR tyrosine kinase inhibitor (AZD9291) was further added thereto to each final concentration. This culture solution was seeded in a 96-well plate at 200 μl/well and then cultured in an incubator at 37° C. in the presence of 5% CO2 for 3 days. The culture supernatant was recovered, and the concentration of IL-2 therein was measured via ELISA using the anti-hIL-2 antibody."}},
  "data": [
    {"smiles": "C#Cc1cccc(Nc2ncnc3cc(OCCOC)c(OCCOC)cc23)c1", "note": "[Erlotinib]", "values": [
      {"measurement": "cytokine concentrations relative to the non-treatment group", "setting": "[1]", "value": "such induction was not observed"}
    ]},
    {"smiles": "Cc1nc(Nc2ncc(C(=O)Nc3c(C)cccc3Cl)s2)cc(N2CCN(CCO)CC2)n1", "note": "[Dasatinib, reference compound]", "values": [
      {"measurement": "cell death", "setting": "mouse spleen cells", "value": "cell death was induced"}
    ]},
    {"smiles": "C=CC(=O)Nc1cc(Nc2nccc(-c3cn(C)c4ccccc34)n2)c(OC)cc1N(C)CCN(C)C", "note": "[AZD9291, reference compound]", "values": [
      {"measurement": "concentration of IL-2 produced by human peripheral blood mononuclear cells in the culture supernatant", "setting": "[2]", "value": "substantially no activity for inducing IL-2 production"},
      {"measurement": "cytokine concentrations relative to the non-treatment group", "setting": "[1]", "value": "such induction was not observed"}
    ]}
  ]
}
